Data taken from patent publication US6358885B1, “Substituted phenylheterocyclic herbicides” (Mississippi State University, priority 1992, dated 2002).

Experiments:
barnyardgrass [1] = assay: Test C flood test plant response rating 0 to 100; format: in vivo, Echinochloa crus-galli; settings: for Plant response rating, Barnyardgrass: flood test species listed under POSTEMERGENCE, 0 to 100 scale
In short: (§1)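 Compounds in non-phytotoxic solvent applied preemergence to sandy loam one day after planting, postemergence at the 1–4 leaf stage, or to ~2.5 cm floodwater over silt loam.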

chickweed = assay: Test C preemergence/postemergence greenhouse plant response rating 0 to 100; format: in vivo, Stellaria media; settings: POSTEMERGENCE; for Plant response rating, Chickweed: 0 to 100 scale
In short: as §1

giant foxtail [2] = assay: Test B preemergence/postemergence greenhouse plant response rating 0 to 10; format: in vivo, Setaria faberii; settings: 0 to 10 scale
In short: (§2)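 Test chemicals were sprayed onto freshly planted seed and, concurrently, onto young plants between the one and four leaf stage. After a twelve- to sixteen-day greenhouse period, each species was visually compared with untreated controls.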

downy brome = assay: Test C preemergence/postemergence greenhouse plant response rating 0 to 100; format: in vivo, Bromus tectorum; settings: POSTEMERGENCE; for Plant response rating Downy Brome: 0 to 100 scale
In short: as §1

umbrella sedge = assay: Test C flood test plant response rating 0 to 100; format: in vivo, Cyperus difformis; settings: for Plant response rating Umbrella sedge: flood test species listed under POSTEMERGENCE, 0 to 100 scale
In short: as §1

giant foxtail [3] = assay: Test C preemergence/postemergence greenhouse plant response rating 0 to 100; format: in vivo, Setaria faberii; settings: POSTEMERGENCE; for Plant response rating, Giant foxtail: 0 to 100 scale
In short: as §1

rape = assay: as above; format: in vivo, Brassica napus; settings: POSTEMERGENCE; for Plant response rating, Rape: 0 to 100 scale
In short: as §1

crabgrass = assay: Test B preemergence/postemergence greenhouse plant response rating 0 to 10; format: in vivo, Digitaria spp.; settings: 0 to 10 scale
In short: as §2

soybean = assay: Test C preemergence/postemergence greenhouse plant response rating 0 to 100; format: in vivo, Glycine max; settings: POSTEMERGENCE; for Plant response rating, Soybean: 0 to 100 scale
In short: as §1

wild buckwheat = assay: Test B preemergence/postemergence greenhouse plant response rating 0 to 10; format: in vivo, Polygonum convolvulus; settings: 0 to 10 scale
In short: as §2

purple nutsedge = assay: as above; format: in vivo, Cyperus rotundus; settings: 0 to 10 scale
In short: as §2

wild oat [4] = assay: Test C preemergence/postemergence greenhouse plant response rating 0 to 100; format: in vivo, Avena fatua; settings: POSTEMERGENCE; for Plant response rating, Wild oat: 0 to 100 scale
In short: as §1

cocklebur = assay: Test B preemergence/postemergence greenhouse plant response rating 0 to 10; format: in vivo, Xanthium pensylvanicum; settings: 0 to 10 scale
In short: as §2

rice = assay: Test C flood test plant response rating 0 to 100; format: in vivo, Oryza sativa; settings: for Plant response rating Rice Japonica: flood test species listed under POSTEMERGENCE, 0 to 100 scale
In short: as §1

barnyardgrass [5] = assay: Test B preemergence/postemergence greenhouse plant response rating 0 to 10; format: in vivo, Echinochloa crus-galli; settings: 0 to 10 scale
In short: as §2

lambsquarters = assay: as above; format: in vivo, Chenopodium album; settings: 0 to 10 scale
In short: as §2

cotton = assay: Test C preemergence/postemergence greenhouse plant response rating 0 to 100; format: in vivo, Gossypium hirsutum; settings: POSTEMERGENCE; for Plant response rating, Cotton: 0 to 100 scale
In short: as §1

wild oat [6] = assay: Test B preemergence/postemergence greenhouse plant response rating 0 to 10; format: in vivo, Avena fatua; settings: 0 to 10 scale
In short: as §2

[7] = POSTEMERGENCE section, flood test, Rate 4 g/ha
[8] = Rate 16 g/ha, under POSTEMERGENCE head (flood test species)

## C#CC(C)N1C(=O)COc2cc(F)c(-c3nn4c(c3Cl)CCCC4)cc21 (stereo not drawn) [Compound 50]
Barnyardgrass [1]; [7]
  Plant response rating (0 to 100), Barnyardgrass: 60
Barnyardgrass [1]; [8]
  Plant response rating (0 to 100), Barnyardgrass: 70
Barnyardgrass [1]; 62 g/ha
  Plant response rating, Barnyardgrass: 95
Barnyardgrass [1]; 250 g/ha
  Plant response rating, Barnyardgrass: 100
chickweed; 62 g/ha
  Plant response rating, Chickweed: 100
chickweed; 250 g/ha
  Plant response rating, Chickweed: 100
chickweed; Rate 1 g/ha
  Plant response rating (0 to 100), Chickweed: 20
chickweed; Rate 4 g/ha
  Plant response rating (0 to 100), Chickweed: 30
chickweed; Rate 16 g/ha
  Plant response rating (0 to 100), Chickweed: 80
Giant foxtail [2]; POSTEMERGENCE, Rate 10 g/ha
  Plant response rating, Giant foxtail: 4
Giant foxtail [2]; POSTEMERGENCE, Rate 50 g/ha
  Plant response rating, Giant foxtail: 4
Giant foxtail [2]; PREEMERGENCE, Rate 10 g/ha
  Plant response rating, Giant foxtail: 0
Giant foxtail [2]; PREEMERGENCE, Rate 50 g/ha
  Plant response rating, Giant foxtail: 3
Downy brome; 62 g/ha
  Plant response rating Downy Brome: 50
Downy brome; 250 g/ha
  Plant response rating Downy Brome: 60
Downy brome; Rate 1 g/ha
  Plant response rating (0 to 100), Downy Brome: 0
Downy brome; Rate 4 g/ha
  Plant response rating (0 to 100), Downy Brome: 30
Downy brome; Rate 16 g/ha
  Plant response rating (0 to 100), Downy Brome: 40
Umbrella sedge; [7]
  Plant response rating (0 to 100), Umbrella sedge: 0
Umbrella sedge; [8]
  Plant response rating (0 to 100), Umbrella sedge: 0
Umbrella sedge; 62 g/ha
  Plant response rating Umbrella sedge: 75
Umbrella sedge; 250 g/ha
  Plant response rating Umbrella sedge: 95
Giant foxtail [3]; 62 g/ha
  Plant response rating, Giant foxtail: 50
Giant foxtail [3]; 250 g/ha
  Plant response rating, Giant foxtail: 50
Giant foxtail [3]; Rate 1 g/ha
  Plant response rating (0 to 100), Giant foxtail: 20
Giant foxtail [3]; Rate 4 g/ha
  Plant response rating (0 to 100), Giant foxtail: 30
Giant foxtail [3]; Rate 16 g/ha
  Plant response rating (0 to 100), Giant foxtail: 50
rape; 62 g/ha
  Plant response rating, Rape: 100
rape; 250 g/ha
  Plant response rating, Rape: 100
rape; Rate 1 g/ha
  Plant response rating (0 to 100), Rape: 0
rape; Rate 4 g/ha
  Plant response rating (0 to 100), Rape: 0
rape; Rate 16 g/ha
  Plant response rating (0 to 100), Rape: 50
crabgrass; POSTEMERGENCE, Rate 10 g/ha
  Plant response rating, Crabgrass: 3
crabgrass; POSTEMERGENCE, Rate 50 g/ha
  Plant response rating, Crabgrass: 4
crabgrass; PREEMERGENCE, Rate 10 g/ha
  Plant response rating, Crabgrass: 0
crabgrass; PREEMERGENCE, Rate 50 g/ha
  Plant response rating, Crabgrass: 0
soybean; 62 g/ha
  Plant response rating, Soybean: 90
soybean; 250 g/ha
  Plant response rating, Soybean: 90
soybean; Rate 1 g/ha
  Plant response rating (0 to 100), Soybean: 40
soybean; Rate 4 g/ha
  Plant response rating (0 to 100), Soybean: 60
soybean; Rate 16 g/ha
  Plant response rating (0 to 100), Soybean: 70
Wild buckwheat; POSTEMERGENCE, Rate 10 g/ha
  Plant response rating, Wild buckwheat: 10
Wild buckwheat; POSTEMERGENCE, Rate 50 g/ha
  Plant response rating, Wild buckwheat: 10
Wild buckwheat; PREEMERGENCE, Rate 50 g/ha
  Plant response rating, Wild buckwheat: 7
Purple nutsedge; POSTEMERGENCE, Rate 10 g/ha
  Plant response rating, Nutsedge: 4
Purple nutsedge; POSTEMERGENCE, Rate 50 g/ha
  Plant response rating, Nutsedge: 5
Purple nutsedge; PREEMERGENCE, Rate 50 g/ha
  Plant response rating, Nutsedge: 0
Wild oat [4]; 62 g/ha
  Plant response rating, Wild oat: 30
Wild oat [4]; 250 g/ha
  Plant response rating, Wild oat: 50
Wild oat [4]; Rate 1 g/ha
  Plant response rating (0 to 100), Wild oat: 10
Wild oat [4]; Rate 4 g/ha
  Plant response rating (0 to 100), Wild oat: 20
Wild oat [4]; Rate 16 g/ha
  Plant response rating (0 to 100), Wild oat: 20
cocklebur; POSTEMERGENCE, Rate 10 g/ha
  Plant response rating, Cocklebur: 9
cocklebur; POSTEMERGENCE, Rate 50 g/ha
  Plant response rating, Cocklebur: 10
cocklebur; PREEMERGENCE, Rate 10 g/ha
  Plant response rating, Cocklebur: 0
cocklebur; PREEMERGENCE, Rate 50 g/ha
  Plant response rating, Cocklebur: 0
rice; [7]
  Plant response rating (0 to 100), Rice Japonica: 25
rice; [8]
  Plant response rating (0 to 100), Rice Japonica: 60
rice; 62 g/ha
  Plant response rating Rice Japonica: 65
rice; 250 g/ha
  Plant response rating Rice Japonica: 90
Barnyardgrass [5]; POSTEMERGENCE, Rate 10 g/ha
  Plant response rating, Barnyardgrass: 3
Barnyardgrass [5]; POSTEMERGENCE, Rate 50 g/ha
  Plant response rating, Barnyardgrass: 4
Barnyardgrass [5]; PREEMERGENCE, Rate 10 g/ha
  Plant response rating, Barnyardgrass: 0
Barnyardgrass [5]; PREEMERGENCE, Rate 50 g/ha
  Plant response rating, Barnyardgrass: 0
lambsquarters; POSTEMERGENCE, Rate 10 g/ha
  Plant response rating, Lambsquarter: 9
lambsquarters; POSTEMERGENCE, Rate 50 g/ha
  Plant response rating, Lambsquarter: 10
lambsquarters; PREEMERGENCE, Rate 50 g/ha
  Plant response rating, Lambsquarter: 10
cotton; 62 g/ha
  Plant response rating, Cotton: 100
cotton; 250 g/ha
  Plant response rating, Cotton: 100
cotton; Rate 1 g/ha
  Plant response rating (0 to 100), Cotton: 70
cotton; Rate 4 g/ha
  Plant response rating (0 to 100), Cotton: 100
cotton; Rate 16 g/ha
  Plant response rating (0 to 100), Cotton: 100
Wild oat [6]; POSTEMERGENCE, Rate 10 g/ha
  Plant response rating, Wild oat: 3
Wild oat [6]; POSTEMERGENCE, Rate 50 g/ha
  Plant response rating, Wild oat: 4
Wild oat [6]; PREEMERGENCE, Rate 50 g/ha
  Plant response rating, Wild oat: 3
